Experimental data taken from ChEMBL document CHEMBL4837244 (ACS Med Chem Lett, 2021).

Columns and labels:
Type in all cases: ADME, Microsome
[1] = Metabolic stability in human liver microsomes assessed as parent compound remaining at 0.1 uM in presence of NADPH by LC-MS/MS analysis
[2] = Metabolic stability in mouse liver microsomes assessed as parent compound remaining at 0.1 uM in presence of NADPH by LC-MS/MS analysis; conditions: read-out: Stabilty
[3] = Metabolic stability in rat liver microsomes assessed as parent compound remaining at 0.1 uM in presence of NADPH by LC-MS/MS analysis; conditions: read-out: Stabilty

SMILES | Stabilty [1] | remaining at 0.1 µM [2] | remaining at 0.1 µM [3]
N#Cc1ccc(CCN2CCC(Nc3nc4ccccc4n3Cc3ccc(C(F)(F)F)nc3)CC2)cc1 | Unstable | < 45% | < 45%
N#Cc1ccc(Cn2c(NC3CCN(CCc4ccc(C(F)(F)F)cc4)CC3)nc3ccccc32)cc1 | Unstable | < 45% | < 45%
N#Cc1ccc(CCN2CCC(Nc3nc4ccccc4n3Cc3ccc(C#N)c(F)c3)CC2)cc1 | Unstable | < 45% | < 45%

Now from value to compound:

Stabilty [1] | remaining at 0.1 µM [2] | remaining at 0.1 µM [3] | SMILES
Unstable | < 45% | < 45% | O=C(c1ccc(CCN2CCC(Nc3nc4ccccc4n3Cc3ccc(F)cc3)CC2)cc1)N1CCNCC1
Unstable | < 45% | < 45% | CCOC(=O)c1ccc(CCN2CCC(Nc3nc4ccccc4n3Cc3ccc(C#N)cc3)CC2)cc1
